≈ marks a conversion by molar mass, not a printed value.
Tests used:
A549 = experiment: Cytotoxicity against human A549 cells; assay type: functional; settings: for EC50: Homo sapiens, A549, read-out: ED50 (the source's name)
MCF7 = experiment: Cytotoxicity against human MCF7 cells; assay type: functional; settings: read-out: ED50 (the source's name)
HT-29 = experiment: Cytotoxicity against human HT29 cells; assay type: functional; settings: read-out: ED50 (the source's name)
A498 = experiment: Cytotoxicity against human A498 cells; assay type: functional; settings: for EC50: Homo sapiens, A498, read-out: ED50 (the source's name)
[1] = (§1) Toxicity in Artemia salina; assay type: organism-based; settings: in vivo
[2] = Cytotoxicity against human PC3 cells; assay type: cell-based, PC-3; settings: read-out: ED50 (the source's name)
MIA PaCa-2 = experiment: Cytotoxicity against human MIAPaCa2 cells; assay type: functional; settings: for EC50: Homo sapiens, MIA PaCa-2, read-out: ED50 (the source's name)
Artemia salina = experiment: as §1; assay type: organism-based; settings: in vivo

CCCCCCCCCC[C@@H](O)[C@@H]1CC[C@@H]([C@@H]2CC[C@@H]([C@H](O)CCCCCCCCCC(O)CC3=CC(C)OC3=O)O2)O1 (stereo not given in full) [BULLATACIN]
ED50 (A549): 2.44 ×10⁻⁶ ug/ml | EC50 (MCF7): 696 ng/mL (≈ 1140 nM) | EC50 (HT-29): > 1000 ng/mL | ED50 (A498): 4.85 ×10⁻⁵ ug/ml

CCCCCCCCCC[C@H](O)[C@H]1CC[C@H]([C@H]2CC[C@H]([C@H](O)CCCCCCCCCC[C@@H](O)CC3=C[C@H](C)OC3=O)O2)O1 [BULLATACIN]
LC50 [1]: 1.59 ng/mL (≈ 2.55 nM) | CC50 [2]: 1e-06 ng/mL (≈ 1.61e-06 nM)

COc1cccc2c1C(=O)c1c(O)c3c(c(O)c1C2=O)C[C@@](O)(C(=O)CO)C[C@@H]3O[C@H]1C[C@H](N)[C@H](O)[C@H](C)O1 [DOXORUBICIN]
LC50 [1]: 257 ng/mL (≈ 473 nM) | EC50 (A549): 28.4 ng/mL (≈ 52.3 nM) | EC50 (MCF7): 347 ng/mL (≈ 638 nM) | EC50 (HT-29): 41.6 ng/mL (≈ 76.5 nM) | EC50 (A498): 24.9 ng/mL (≈ 45.8 nM) | CC50 [2]: 342 ng/mL (≈ 629 nM) | EC50 (MIA PaCa-2): 3.17 ng/mL (≈ 5.83 nM)

CCCCCCCCCC[C@H](O)[C@H]1CC[C@H]([C@H]2CC[C@H]([C@H](O)CCCCCCCC[C@@H](O)CC3=C[C@H](C)OC3=O)O2)O1 [MOLVIZARIN]
LC50 (Artemia salina): 5.26 ×10⁻² ug/ml | EC50 (A549): 63 ng/mL (≈ 106 nM) | EC50 (MCF7): > 1000 ng/mL | EC50 (HT-29): 7.32 ng/mL (≈ 12.3 nM) | EC50 (A498): 709 ng/mL (≈ 1190 nM) | EC50 (MIA PaCa-2): 7.66 ng/mL (≈ 12.9 nM)

CCCCCCCCCCCC[C@H](O)[C@H]1CC[C@H]([C@H]2CC[C@H]([C@H](O)CCCCCCCC[C@@H](O)CC3=C[C@H](C)OC3=O)O2)O1 [SQUAMOTACIN]
LC50 [1]: 6.8 ng/mL (≈ 10.9 nM) | EC50 (A549): 27.7 ng/mL (≈ 44.5 nM) | EC50 (MCF7): > 1000 ng/mL | EC50 (HT-29): 1 ng/mL (≈ 1.61 nM) | EC50 (A498): > 1000 ng/mL | ED50 (MIA PaCa-2): 1.33 ×10⁻⁴ ug/ml

From ChEMBL document CHEMBL1158212, “Squamotacin: an annonaceous acetogenin with cytotoxic selectivity for the human prostate tumor cell line (PC-3)” (J Nat Prod, 1996)
